Results reported in patent US5405849A, “Angiotensin II receptor blocking 2,3,6 substituted quinazolinones” (American Cyanamid Company, priority 1993, dated 1995).

Tested on: angiotensin II (AII) vasopressor response
Assay: AII challenge: antagonism of the vasopressor response of angiotensin II in conscious Okamoto-Aoki SHR
Assay type: in vivo, rat (Okamoto-Aoki SHR)
Conditions: for inhibition in vivo at 3 mg/kg / inhibition in vivo at 10 mg/kg / inhibition in vivo at 6 mg/kg / inhibition in vivo at 1 mg/kg / inhibition in vivo at 2 mg/kg / inhibition in vivo at 5 mg/kg: Rattus norvegicus; for inhibition in vivo at 3 mg/kg / inhibition in vivo at 10 mg/kg / inhibition in vivo at 6 mg/kg / inhibition in vivo at 1 mg/kg / inhibition in vivo at 2 mg/kg: iv; for inhibition in vivo at 3 mg/kg: 3 mg/kg iv; for inhibition in vivo at 10 mg/kg: 10 mg/kg iv; for inhibition in vivo at 5 mg/kg: po
Source text: Conscious Male Okamoto-Aoki SHR, 16-20 weeks old, weighing approximately 330 g are purchased from Charles River Labs (Wilmington, Mass.). Conscious rats are restrained in a supine position with elastic tape. The area at the base of the tail is locally anesthetized by subcutaneous infiltration with 2% procaine. The ventral caudal artery and vein are isolated, and a cannula made of polyethylene (PE) 10-20 tubing (fused together by heat) is passed into the lower abdominal aorta and vena cava, respectively. The cannula is secured, heparinized (1,000 I.U./ml), sealed and the wound is closed. The animals are placed in plastic restraining cages in an upright position. The cannula is attached to a Statham P23Db pressure transducer, and pulsatile blood pressure is recorded to 10-15 minutes with a Gould Brush recorder.
Angiotensin II (human sequence, Sigma Chem. Co., St. Louis, Mo.) of 0.05 and 0.1 ug/kg i.v. is injected into all rats (predosing response). Then a test compound, vehicle or a known angiotensin II antagonist is administered i.v., i.p. or orally to each set of rats. […] The vasopressor response of angiotensin II is measured for the increase in systolic blood pressure in mmHg. The percentage of antagonism or blockade of the vasopressor response of angiotensin II by a compound is calculated using the vasopressor response (increase in systolic blood pressure) of angiotensin II of each rat predosing the compound as 100%.

## CCCCc1nc2ccc(CO)cc2c(=O)n1Cc1ccc(-c2ccccc2-c2nnn[nH]2)cc1 [Example 53]
6 mg/kg iv, AII .025 ug/kg, 30 min
  Response change (systolic BP increase to AII): 15 mmHg
6 mg/kg iv, AII .025 ug/kg, 90 min
  Response change (systolic BP increase to AII): 10 mmHg
10 min, AII .05 ug/kg
  inhibition in vivo at 3 mg/kg: 62%
  inhibition in vivo at 10 mg/kg: 83%
10 min, AII .1 ug/kg
  inhibition in vivo at 3 mg/kg: 42%
  inhibition in vivo at 10 mg/kg: 90%
0.5 h, AII .025 ug/kg, 30 min
  inhibition in vivo at 3 mg/kg: 53%
0.5 h, 6 mg/kg iv, AII .025 ug/kg, 30 min
  inhibition in vivo at 6 mg/kg: 50%
0.5 h, AII .05 ug/kg, 30 min, second 30/60/90 series
  inhibition in vivo at 10 mg/kg: 76%
0.5 h, AII .1 ug/kg, 30 min, second 30/60/90 series
  inhibition in vivo at 10 mg/kg: 60%
1 h, AII .05 ug/kg, 60 min
  inhibition in vivo at 3 mg/kg: 30%
1 h, AII .1 ug/kg, 60 min
  inhibition in vivo at 3 mg/kg: 13%
1 h, AII .05 ug/kg, 60 min, second 30/60/90 series
  inhibition in vivo at 10 mg/kg: 46%
1 h, AII .1 ug/kg, 60 min, second 30/60/90 series
  inhibition in vivo at 10 mg/kg: 44%
1.5 h, AII .025 ug/kg, 90 min
  inhibition in vivo at 3 mg/kg: 47%
1.5 h, AII .1 ug/kg, 90 min
  inhibition in vivo at 3 mg/kg: 13%
  inhibition in vivo at 10 mg/kg: 56%
1.5 h, 6 mg/kg iv, AII .1 ug/kg, 90 min
  inhibition in vivo at 6 mg/kg: 30%
1.5 h, AII .05 ug/kg, 90 min
  inhibition in vivo at 10 mg/kg: 41%
1.5 h, AII .05 ug/kg, 90 min, second 30/60/90 series
  inhibition in vivo at 10 mg/kg: 35%
1.5 h, AII .1 ug/kg, 90 min, second 30/60/90 series
  inhibition in vivo at 10 mg/kg: 26%

## CCCCc1nc2ccc(C(O)c3ccccc3)cc2c(=O)n1Cc1ccc(-c2ccccc2-c2nnn[nH]2)cc1 (stereo not drawn) [Example 54]
1 mg/kg iv, AII .1 ug/kg, 30 min
  Response change (systolic BP increase to AII): 35 mmHg
2 mg/kg iv, AII .05 ug/kg, 180 min
  Response change (systolic BP increase to AII): 17 mmHg
5 mg/kg oral, AII .05 ug/kg, 180 min
  Response change (systolic BP increase to AII): 25 mmHg
5 mg/kg oral, AII .1 ug/kg, 180 min
  Response change (systolic BP increase to AII): 48 mmHg
0.5 h, 1 mg/kg iv, AII .05 ug/kg, 30 min
  inhibition in vivo at 1 mg/kg: 47%
0.5 h, 1 mg/kg iv, AII .1 ug/kg, 30 min
  inhibition in vivo at 1 mg/kg: 30%
0.75 h, 1 mg/kg iv, AII .05 ug/kg, 45 min
  inhibition in vivo at 1 mg/kg: 75%
0.75 h, 1 mg/kg iv, AII .1 ug/kg, 45 min
  inhibition in vivo at 1 mg/kg: 28%
1.5 h, 1 mg/kg iv, AII .05 ug/kg, 90 min
  inhibition in vivo at 1 mg/kg: 49%
1.5 h, 1 mg/kg iv, AII .1 ug/kg, 90 min
  inhibition in vivo at 1 mg/kg: 34%
2 h, 2 mg/kg iv, AII .05 ug/kg, 120 min
  inhibition in vivo at 2 mg/kg: 85%
2 h, 2 mg/kg iv, AII .1 ug/kg, 120 min
  inhibition in vivo at 2 mg/kg: 64%
2.5 h, 2 mg/kg iv, AII .05 ug/kg, 150 min
  inhibition in vivo at 2 mg/kg: 67%
2.5 h, 2 mg/kg iv, AII .1 ug/kg, 150 min
  inhibition in vivo at 2 mg/kg: 54%
3 h, 2 mg/kg iv, AII .05 ug/kg, 180 min
  inhibition in vivo at 2 mg/kg: 69%
3 h, 2 mg/kg iv, AII .1 ug/kg, 180 min
  inhibition in vivo at 2 mg/kg: 50%
3 h, 5 mg/kg oral, AII .05 ug/kg, 180 min
  inhibition in vivo at 5 mg/kg: 55%
3 h, 5 mg/kg oral, AII .1 ug/kg, 180 min
  inhibition in vivo at 5 mg/kg: 26%
